Target: SHP2 (Homo sapiens (Human), UniProt Q06124)
Test: SHP2 allosteric inhibition assay (DiFMUP prompt fluorescence)
Assay type: biochemical
Conditions: 0.25 nM SHP2 activated with 0.5 μM peptide IRS1_pY1172(dPEG8)pY1222; substrate DiFMUP

| Compound | IC50 [µM] |
| --- | --- |
| N[C@H]1c2ccccc2C[C@@]12CC=C(c1cnc3c(N4CCCc5ncccc54)n[nH]c3n1)CC2 (single isomer, unassigned) [Example 172] | 1 to 10 |
| Cn1cc(-c2ccc3c(n2)CCCN3c2n[nH]c3nc(N4CCC5(CC4)Cc4ccc(F)cc4[C@H]5N)cnc23)cn1 [Example 40] | > 10 |
| CNC(=O)c1cc(C)nc(N2CCC3(CC2)Cc2ccccc2[C@H]3N)c1 [Example 228] | > 10 |
| N[C@H]1c2ccccc2C[C@]12CC[C@H](c1cnc3c(N4CCCc5ncccc54)n[nH]c3n1)CC2 (single isomer, unassigned) [Example 188, (1s, 1′R, 4S)-4-(3-(3,4-dihydro-1,5-naphthyridin-1(2H)-yl)-1H-pyrazolo[3,4-b]pyrazin-6-yl)-1′,3′-dihydrospiro[cyclohexane-1,2′-inden]-1′-amine] | > 10 |
| Cc1nc2c(N3CCCc4c3ccn(C)c4=O)n[nH]c2nc1N1CCC2(CC1)Cc1ccccc1[C@H]2N [Example 247, 1-{6-[(3S)-3-amino-1,3-dihydrospiro[indene-2,4′-piperidin]-1′-yl]-5-methyl-1H-pyrazolo[3,4-b]pyrazin-3-yl}-6-methyl-1,2,3,4,5,6-hexahydro-1,6-naphthyridin-5-one] | 1 to 10 |
| C[C@@H](C#N)N(C)c1n[nH]c2nc(N3CCC4(CC3)Cc3ccccc3[C@H]4N)cnc12 (racemic) [Example 150, (S)-2-((6-((S)-1-amino-1,3-dihydrospiro[indene-2,4′-piperidin]-1′-yl)-1H-pyrazolo[3,4-b]pyrazin-3-yl)(methyl)amino)propanenitrile] | 0.05 to 1 |
| N#Cc1nc(Sc2ccnc(Cl)c2Cl)cnc1N1CCC2(CC1)Cc1ccccc1[C@H]2N [Example 220] | ≤ 0.05 |
| Cc1nc(N2CCC3(CC2)Oc2ccccc2[C@H]3N)c(CO)nc1-c1cccc(Cl)c1Cl [Example 268, (R)-(3-(3-amino-3H-spiro[benzofuran-2,4′-piperidin]-1′-yl)-6-(2,3-dichlorophenyl)-5-methylpyrazin-2-yl)methanol] | ≤ 0.05 |
| Cc1nc2c(N3CCCc4c3ccn(C)c4=O)n[nH]c2nc1N1CCC2(CC1)Cc1ccc(F)cc1[C@H]2N [Example 246, 1-{6-[(3S)-3-amino-5-fluoro-1,3-dihydrospiro[indene-2,4′-piperidin]-1′-yl]-5-methyl-1H-pyrazolo[3,4-b]pyrazin-3-yl}-6-methyl-1,2,3,4,5,6-hexahydro-1,6-naphthyridin-5-one] | > 10 |
| N[C@@H]1c2ccccc2CC12CCN(c1cnc3c(-c4ccnc(Cl)c4Cl)n[nH]c3n1)CC2 [Example 70] | 0.05 to 1 |
| N[C@H]1c2ccccc2C[C@]12CC[C@@H](c1cnc(Sc3ccnc(Cl)c3Cl)cn1)CC2 (single isomer, unassigned) [Example 277, (1r, 4r)-4-(5-((2,3-dichloropyridin-4-yl)thio)pyrazin-2-yl)-1′,3′-dihydrospiro[cyclohexane-1,2′-inden]-1′-amine] | 0.05 to 1 |
| Cc1nc(N2CCC3(CC2)Cc2ccccc2[C@H]3N)c(CO)nc1-c1cccc(Cl)c1Cl [Example 20, (S)-(3-(1-amino-1,3-dihydrospiro[indene-2,4′-piperidin]-1′-yl)-6-(2,3-dichlorophenyl)-5-methylpyrazin-2-yl)methanol] | ≤ 0.05 |
| Cc1n[nH]c2nc(N3CCC4(CC3)Cc3ccccc3[C@H]4N)c(CO)nc12 [Example 156, {6-[(3S)-3-amino-1,3-dihydrospiro[indene-2,4′-piperidin]-1′-yl]-3-methyl-1H-pyrazolo[3,4-b]pyrazin-5-yl}methanol] | ≤ 0.05 |
| N[C@@H]1c2ccccc2CC12CCN(c1nc3[nH]nc(N4CCCc5ncccc54)c3nc1CO)CC2 [Example 100] | 0.05 to 1 |

Further lines, results first:

| IC50 [µM] | Compound |
| --- | --- |
| ≤ 0.05 | Cc1cnc(CO)c(N2CCC3(CC2)Cc2ccccc2[C@@H]3N)n1 (single isomer, unassigned) [Example 121] |
| ≤ 0.05 | Cc1nc2c(C3=CCOCC3)n[nH]c2nc1N1CCC2(CC1)Cc1ccccc1[C@H]2N [Example 167, (3S)-1′-[3-(3,6-dihydro-2H-pyran-4-yl)-5-methyl-1H-pyrazolo[3,4-b]pyrazin-6-yl]-1,3-dihydrospiro[indene-2,4′-piperidin]-3-amine] |
| ≤ 0.05 | CC(=O)N1CCN(c2n[nH]c3nc(N4CCC5(CC4)Cc4ccccc4[C@H]5N)c(CO)nc23)c2ccccc21 [Example 102] |
| ≤ 0.05 | Cn1ccc(Oc2n[nH]c3nc(N4CCC5(CC4)Cc4ccccc4[C@H]5N)cnc23)c(Cl)c1=O [Example 128, (S)-4-((6-(1-amino-1,3-dihydrospiro[indene-2,4′-piperidin]-1′-yl)-1H-pyrazolo[3,4-b]pyrazin-3-yl)oxy)-3-chloro-1-methylpyridin-2(H)-one] |
| ≤ 0.05 | Nc1nccc(Oc2cnc(N3CCC4(CC3)Oc3ccccc3[C@H]4N)cn2)c1Cl [Example 187, (3R)-1′-{5-[(2-amino-3-chloropyridin-4-yl)oxy]pyrazin-2-yl}-3H-spiro[1-benzofuran-2,4′-piperidin]-3-amine] |
| ≤ 0.05 | Nc1nccc(Sc2cnc3c(n2)OC[C@H]2C[C@@]4(CCN32)Oc2ccccc2[C@H]4N)c1Cl [Example 222] |
| ≤ 0.05 | Nc1nccc(Sc2n[nH]c3nc(N4CCC5(CC4)Cc4ccccc4[C@H]5N)cnc23)c1Cl [Example 86, (S)-1′-(3-((2-amino-3-chloropyridin-4-yl)thio)-1H-pyrazolo[3,4-b]pyrazin-6-yl)-1,3-dihydrospiro[indene-2,4′-piperidin]-1-amine] |
| ≤ 0.05 | N[C@@H]1c2ccccc2CC12CCN(c1cnc(S[C@H]3CCOC3)cn1)CC2 (single isomer, unassigned) [Example 234] |
| ≤ 0.05 | N[C@@H]1c2ccccc2CC12CCN(c1cnc(C(=O)N3CCCc4ncccc43)cn1)CC2 [Example 111] |
| ≤ 0.05 | N[C@@H]1c2ccccc2CC12CCN(c1cnc3c(Oc4ccnc(Cl)c4Cl)n[nH]c3n1)CC2 [Example 126, (3S)-1′-{3-[(2,3-dichloropyridin-4-yl)oxy]-1H-pyrazolo[3,4-b]pyrazin-6-yl}-1,3-dihydrospiro[indene-2,4′-piperidin]-3-amine] |
| ≤ 0.05 | N[C@@H]1c2c(F)ccc(F)c2CC12CCN(c1cnc3c(N4CCCc5ncccc54)n[nH]c3n1)CC2 [Example 112] |
| ≤ 0.05 | N[C@@H]1c2ccccc2OC12CCN(c1cnc(Sc3ccnc(Cl)c3Cl)cn1)CC2 [Example 94] |
| ≤ 0.05 | N#Cc1n[nH]c2nc(N3CCC4(CC3)Cc3ccccc3[C@H]4N)c(CO)nc12 [Example 154, 6-[(3S)-3-amino-1,3-dihydrospiro[indene-2,4′-piperidin]-1′-yl]-5-(hydroxymethyl)-1H-pyrazolo[3,4-b]pyrazine-3-carbonitrile] |
| ≤ 0.05 | Cn1ccc2c(c1=O)CCCN2c1n[nH]c2nc(N3CCC4(CC3)Cc3cc(F)ccc3[C@H]4N)cnc12 [Example 52] |
| ≤ 0.05 | N[C@H]1c2cccc(F)c2CC12CCN(c1cnc3cn[nH]c3n1)CC2 [Example 24] |
| ≤ 0.05 | N[C@@H]1c2ccccc2CC12CCN(c1cnc(Oc3ccnc(Cl)c3Cl)cn1)CC2 [Example 134, (3S)-1′-{5-[(2,3-dichloropyridin-4-yl)oxy]pyrazin-2-yl}-1,3-dihydrospiro[indene-2,4′-piperidin]-3-amine] |
| ≤ 0.05 | N[C@@H]1c2ccccc2CC12CCN(c1cnc(SC3CCC3)cn1)CC2 [Example 236] |

— patent US10934302B1, “SHP2 phosphatase inhibitors and methods of use thereof” (Relay Therapeutics, Inc., priority 2018, dated 2021)
